What was measured:
[1] = system: Human Simpson-Golabi-Behmel syndrome (SGBS) preadipocytes; experiment: Brown cell differentiation of SGBS preadipocytes, high content imaging with anti-UCP1 and LipidTox staining; format: cell-based; conditions: concentration not given; for % Brown (adipocytes): day 11, LipidTox and UCP1 positive; for % White (adipocytes): day 11, LipidTox positive, below UCP1 threshold; for UCP1 fold: day 11, UCP1 staining
Protocol: OF Media included 1% Anti-Anti, […] biotin, […] panthotenate, and DMEM:F12 (1:1) media. Growth media included OF Media and 10% Fetal Bovine Serum. Differentiation induction media included OF Media, 10 μg/mL Insulin, 0.5 mM IBMX, and 1 μM Dexamethasone. The maintenance media included OF media and 10 μg/mL Insulin.
Human Simpson-Golabi-Behmel syndrome (SGBS) preadipocyteswere cultured in T225 flasks containing Growth Media. Upon passaging, cells were trypsinized, collected, spun down at 1250 g for 5 minutes at 20° C. to pellet. Cells were then resuspended in growth media before seeding cells at optimal density to maintain 75-80% confluency before passaging every 3-4 days.
Compounds at varying concentrations (starting at 20 uM with 1:3 dilution) were spotted onto 384-well black clear bottom plates (Greiner). The negative control consisted of DMSO while positive controls contained 2 uM of Rosiglitazone (Cayman). 50 μL of SGBS cells in induction were seeded directly on top of compound at a concentration of 1.1×10^5 cells/mL (˜5500 cells/well). After 4 days of induction, media was changed to 50 μL of maintenance media. Every 2-4 days after, media was changed again with 50 μL maintenance media until day 11.
After 11 days of differentiation, cells were fixed with 10 μL of 32% Paraformaldehyde for 10 minutes, followed by 10 μL of 7% Triton X-100 for another 10 minutes. Media was then aspirated down to 5 μL, 25 μL of Blocking Buffer 1 (2% BSA and 2.5% goat serum) was added, and plates were incubated for 1 hour. Plates were then aspirated down to 5 μL and 25 μL of primary antibody was added for 16 hour incubation. Primary antibody containing UCP1 (Sigma; Rabbit; 1:100) was diluted in Blocking Buffer 2 (2% BSA).
The next day, plates were washed 3 times with 1× PBS and 25 μL of secondary antibody were added. Secondary antibody containing Hoechst (1:6000), Alex Fluor 647 goat Anti-Rabbit (1:1000), and HCS LipidTOX Green Neutral Lipid Stain (Life Technologies; 1:800) were diluted in Blocking Buffer 2 (2% BSA). After 1 hour of incubation at room temperature, plates were washed 3 times with 1× PBS and left in 50 μL of PBS. Plates were then sealed and imaged.
Plates were imaged using CellInsight CX5 High Content Screening (HCS) Platform. Total cell number was detected using Hoechstand images were used to quantify total adipocytes (met defined threshold of lipidtox staining intensity).

SGBS preadipocytes = experiment: Brown adipocyte differentiation of SGBS preadipocytes with or without exogenous LPA; format: cell-based, human; conditions: day 11 SGBS adipocytes, compound during days 3-4 of induction, 10 μM LPA during days 1-4; FIG. 6A
Protocol: SGBS preadipocytes were plated in 384 plates as previously described but using induction media with or without the addition of 10 μM lysophosphatidic acid (LPA) for the first 2 days. On day 3, cells were treated with 10 μL of 6× concentration of compound 19 (final concentration was a 1:3 serial dilution starting at 20 μM) again with or without the addition of LPA. On day 5, media was changed to maintenance media until day 11. Staining and analysis of brown adipocytes based on UCP1 and lipid performed as described previously.

| SMILES | % Brown (adipocytes) ([1]; 1st of 3 sub-columns) | % Brown (adipocytes) ([1]; 2nd of 3 sub-columns) | % Brown (adipocytes) ([1]; 3rd of 3 sub-columns) | % White (adipocytes) ([1]; 1st of 3 sub-columns) | % White (adipocytes) ([1]; 2nd of 3 sub-columns) | % White (adipocytes) ([1]; 3rd of 3 sub-columns) | UCP1 fold ([1]; 1st of 3 sub-columns) | UCP1 fold ([1]; 2nd of 3 sub-columns) | UCP1 fold ([1]; 3rd of 3 sub-columns) | induction of brown adipocyte differentiation in the presence of exogenous LPA (SGBS preadipocytes) |
| --- | --- | --- | --- | --- | --- | --- | --- | --- | --- | --- |
| Cc1sc(-c2noc(C(C)C)n2)cc1S(=O)(=O)N1CCC(C(=O)NCc2cccs2)CC1 [Compound 5] | 18% | 22% | 28% | 3% | 7% | 7% | 1.8x | 1.8x | 2.2x | – |
| Cc1nn(-c2ccccc2)c(C)c1S(=O)(=O)N1CCC(C(=O)NCCc2cccs2)CC1 [Compound 3] | 20% | 28% | 30% | 10% | 8% | 5% | 1.6x | 2.1x | 2.9x | – |
| Cc1ccc(NS(=O)(=O)c2ccc(-c3c(C)noc3C)cc2)cc1Cl [Compound 11] | 18% | 22% | 24% | 4% | 6% | 11% | 1.7x | 1.8x | 1.7x | – |
| COC(=O)c1ccc(NS(=O)(=O)c2ccc(-c3c(C)noc3C)cc2)cc1 [Compound 10] | 17% | 21% | 29% | 6% | 8% | 10% | 1.5x | 1.5x | 2.0x | – |
| Cc1nc(-c2cc(S(=O)(=O)N3CCC(C(=O)NCCc4cccs4)CC3)c(C)s2)no1 [Compound 2] | 29% | 34% | 34% | 9% | 8% | 7% | 2.2x | 2.8x | 2.9x | – |
| Cc1sc(-c2noc(C(C)C)n2)cc1S(=O)(=O)N1CCC(C(=O)N(C)Cc2ccco2)CC1 [Compound 6] | 14% | 23% | 29% | 6% | 6% | 5% | 1.2x | 1.7x | 2.4x | – |
| Cc1sc(-c2noc(C3CCC3)n2)cc1S(=O)(=O)N1CCC(C(=O)NCc2ccco2)CC1 [Compound 4] | 17% | 22% | 30% | 5% | 7% | 5% | 1.5x | 1.6x | 2.6x | – |
| COC(=O)CCSCc1ccc(-c2onc(C)c2NC(=O)OC(C)c2ccccc2Cl)cc1 (stereo not shown) [Compound 19] | – | – | – | – | – | – | – | – | – | attenuated induction of brown adipocyte differentiation |
| Cc1ccc(CNC(=O)C2CCN(S(=O)(=O)c3cc(-c4noc(C5CC5)n4)sc3C)CC2)o1 [Compound 1] | 15% | 27% | 30% | 6% | 3% | 4% | 1.2x | 2.6x | 2.7x | – |
| Cc1ccc(C)c(-c2csc(Nc3ccc(S(=O)(=O)Nc4cc(C)on4)cc3)n2)c1 [Compound 9] | 18% | 21% | 31% | 5% | 6% | 6% | 1.5x | 1.9x | 2.7x | – |

Source: patent US20170042915A1, “LPA RECEPTOR MODULATORS FOR BROWN FAT DIFFERENTIATION” (The California Institute for Biomedical Research, priority 2015, published 2017)
